The subject of this test is P. falciparum 3D7 growth, pLDH absorbance. In words: P. falciparum 3D7 growth inhibition, dose response, strain 3D7 (AID 2305).

`O=C(NC1CC1)c1cnc(N2CCN(Cc3c(F)cccc3Cl)CC2)c(Cl)c1` gave an IC50 of 910 nM.

As to `COc1ccc(O)c(-c2sc(N=C(N)N)nc2-c2ccccc2)c1`, the IC50 worked out at 370 nM.

Regarding `CCN(CCCN1CCCCC1)c1cc(C)nc(Nc2ccc(C)c(Br)c2)n1`, the IC50 turned out to be 250 nM. The figure for `NC(N)=NN=CC(=O)Nc1cc([N+](=O)[O-])cc([N+](=O)[O-])c1` is 630 nM; for `Cc1cc(CNCCCCCNCc2cccc([N+](=O)[O-])c2)ccc1O` it is 780 nM; for `Cc1ccc(C2CCN(CCCCNC(=O)c3ccc(-c4ccc(C(F)(F)F)cc4)cc3)CC2)c(O)c1` it is 130 nM. In turn, `Cc1cc(C(=O)NC2CCN(CC3(c4ccc(Cl)cc4)CCC3)CC2)on1` came in with an IC50 of 90 nM. For the molecule `COc1cccc(CN2CCCN(Cc3cccc(NC(=O)c4ccc(-c5ccccc5)cc4)c3)CC2)c1`, the IC50 came to 240 nM.

Regarding `O=C(/C=C/c1ccccc1Cl)NC1CCC(CN2CCC(c3c[nH]c4ccncc34)CC2)CC1` (stereo unspecified), the IC50 is 330 nM. The molecule `N#Cc1ccc(N(CCOc2ccc(Cl)cc2)Cc2ccccc2C(F)(F)F)cc1C(F)(F)F` registered an IC50 of 660 nM.

Consider `O=C(N[C@@H](CC1CCCCC1)C(=O)NCCN1CCOCC1)c1ccc(O)c(-c2ccc(Cl)c(Cl)c2)c1`, for which the IC50 was 180 nM. Under `CC(C)c1ncc(-c2ccncc2)c(C2CCC(CNC(=O)c3cccnc3)CC2)n1` (stereo unspecified) stands 780 nM; under `CCCCCCN1CCC(NCc2ccc(C)cc2)CC1`, 860 nM; under `CCCCCCN1CCN(Cc2cccc(NC(=O)c3cc4ccccc4o3)c2)CC1`, 910 nM. The molecule `COc1nc2c(CCN3CC[C@H](NCc4cc(C#N)c5c(c4)CCO5)[C@H](O)C3)ccnc2cc1F` returned an IC50 of 350 nM. `COc1ccc(-c2ccccc2CNc2nc(NCCc3ccc(O)cc3)nc(N3CCNCC3)n2)cc1`: the IC50 is 1080 nM. `O=C(NCCCCN1CCN(c2cccc3ccccc23)CC1)c1ccc(NC(=O)c2ccc(Cl)cc2)cc1` displayed an IC50 of 360 nM. In turn, `O=C(NC1CCN(Cc2ccccc2)CC1)c1cc(-c2cccnc2)nc2ccc(Cl)cc12` gave an IC50 of 760 nM. The figure for `O=C(NC1CCCCN(Cc2ccccc2O)C1)c1cccc(C(F)(F)F)c1` (stereo unspecified) is 790 nM.

Molecule `CC(=O)N1N=C(c2ccc(F)cc2)Sc2c1nc(C1CCCCC1)n2C(C)=O` yielded an IC50 of 890 nM.

For `COc1ccc2ncc(C)c(CCN3CCC(NCc4ccc5c(n4)NC(=O)CS5)CC3)c2c1`, the IC50 came out at 550 nM. Under `CCOc1cc(C)ccc1C1CCN(CCN2CCC(CNC(=O)c3ccc(-c4ccc(C(F)(F)F)cc4)cc3)CC2)CC1` stands 700 nM. Take `CC(C)(C)c1cc(C(=O)Nc2ccc(C(=N)N)cc2)c(O)c(C(C)(C)C)c1`: the IC50 amounted to 760 nM. The figure for `COc1ccc(N(c2nc(-c3cc(Cl)ccc3Cl)cs2)C2CCNC2)cc1` (stereo unspecified) is 870 nM; for `Cc1cccc2[nH]c(-c3ccc(-c4ccc(CN5CCN(C6CCN(C)CC6)CC5)cc4)cc3)nc12` it is 100 nM; for `COc1ccc(CN2CCN(C(=O)c3cccs3)CC2)c(O)c1` it is 840 nM. On to `CN(C)Cc1ccc(O)c(-c2ccc(C(C)(C)C)cc2)n1`, for which the IC50 was found to be 1080 nM.

In turn, `CCCC(C)Nc1nc(C)cc(N[C@@H](CC(C)C)C(=O)NCCc2ccccc2)n1` (stereo partly specified) came in with an IC50 of 1360 nM. For the molecule `COC(=O)/C=C/c1ccc(CC(C)NCC(O)c2cccc(C(F)(F)F)c2)cc1` (stereo unspecified), the IC50 amounted to 770 nM. For the molecule `Cc1noc(-c2ccccc2)c1NC(=O)N1CCN(CCCCCCNC(=O)/C=C/c2ccc(Cl)c(Cl)c2)CC1`, the IC50 is 880 nM. Consider `CN1CCN(CC(=O)Nc2cccc(-c3cccc(-c4nc5ccc(F)cc5[nH]4)c3)c2)CC1`, for which the half-inhibitory concentration (IC50) is 740 nM. In turn, `CC(Cc1ccc(OCCN2CCN(c3cccc(Cl)c3)CC2)cc1)NCC(O)c1cccc(Cl)c1` (stereo unspecified) showed a 50% inhibitory concentration (IC50) of 1210 nM. The molecule `COc1cc2ccccc2cc1CCNCCCCNCCc1cc2ccccc2cc1OC` had an IC50 of 400 nM.

`O=c1cc(NCCCNC2CCCc3c2cc(Cl)c(Cl)c3Cl)[nH]c2ccccc12` (stereo unspecified) registered a concentration for half-maximal inhibition (IC50) of 280 nM. With `COc1cccc(CN2CCCN(Cc3cccc(NC(=O)c4ccc(Cl)c(Cl)c4)c3)CC2)c1`, the half-maximal inhibitory concentration (IC50) was determined as 1460 nM. `COCCNCc1nc(-c2ccc3c(Nc4ccc(F)c(O)c4)ccnc3c2)cs1` gave a half-inhibitory concentration (IC50) of 690 nM.

Turning to `Cc1cccc(NC(c2cccs2)c2c(NC(=O)c3ccccc3)sc(C)c2C)n1` (stereo unspecified), the half-maximal inhibitory concentration (IC50) came out at 830 nM. The figure for `N/C(=N/C(=NCCCCCCN=C(/N=C(/N)Nc1ccc(Cl)cc1)N1CCOCC1)N1CCOCC1)Nc1ccc(Cl)cc1` is 710 nM; for `O=C(Nc1cccc(Cl)c1)N(CCCn1ccnc1)Cc1csc(-c2ccc(CNCc3ccccc3)cc2)n1` it is 540 nM.

Molecule `Clc1cc(Nc2ccnc3ccc(Br)cc23)ccc1Oc1ccc2ccccc2c1Cl` yielded an IC50 of 730 nM. `CCn1c(=O)c(C(=O)Nc2cc(Cl)c(OC)cc2OC)nc2ccccc21`: the IC50 turned out to be 240 nM.

Molecule `COc1ccc(Nc2cc(C)nc(Nc3ccc(NC(C)=O)cc3)n2)cc1` showed an IC50 of 860 nM. In the case of `Cc1nnc(NC(=O)c2cn(-c3ccccc3)nc2-c2ccccc2C)o1`, the half-inhibitory concentration (IC50) was found to be 560 nM. In turn, `Cc1cc(CNCCCCCCNCc2cccc([N+](=O)[O-])c2)ccc1O` had an IC50 of 720 nM. Under `CN1CCN(c2ccnc3ccc(NC(=O)Nc4ccc(-c5ccncc5)c(C(F)(F)F)c4)cc23)CC1` stands 820 nM; under `CCc1nc2c(cnn2CC)c(NC2CCOCC2)c1CNC(=O)N1CCOCC1`, 890 nM.

In the case of `CC(C)CNCc1cccc(-c2ccccc2CNC2CCN(Cc3ccccc3)CC2)c1`, the IC50 came to 580 nM.

`Fc1ccc(-c2nc(NCc3cccc(C(F)(F)F)c3)nn2-c2cccc(C(F)(F)F)c2)cc1C(F)(F)F` displayed a concentration for half-maximal inhibition (IC50) of 1050 nM. On to `CC(C)(C)NC(=O)c1ccc(Oc2ccc(OC(F)(F)F)cc2)c(NC(=O)C(C)(C)C)c1`, for which the IC50 worked out at 980 nM. Under `COc1ccc(-c2cccc(NC(=O)c3cccc(F)c3)c2)cc1CN1CCCN(C)CC1` stands 600 nM; under `CCOC(=O)c1c(-c2ccccc2)c(C(=O)OCC)n2ccccc12`, 610 nM. Under `CC(C)CCN1CCCN(Cc2ccc(C(=O)Nc3ccc(C(C)(C)C)cc3)cc2)CC1` stands 870 nM; under `Cc1cc(N[C@@H](Cc2ccccc2)C(=O)NCc2cccs2)nc(NCCc2ccccn2)n1`, 1280 nM; under `Cc1cccc2[nH]c(-c3ccc(-c4cccc(NC(=O)c5ccncc5)c4)cc3)nc12`, 840 nM. For the molecule `CCCCCCNC(=O)C1Cc2c([nH]c3ccc(C)cc23)C2(CCN(Cc3ccccc3)CC2)N1` (stereo unspecified), the IC50 was 980 nM. On to `O=C(/C=C/c1ccc(Cl)c(Cl)c1)NCCCCCCN1CCN(C(=O)Nc2ccc(Cl)c(Cl)c2)CC1`, for which the IC50 is 930 nM. In the case of `Cc1noc(C)c1-c1cccc(CNCc2cccc(-c3ccc(-c4nc5ccccc5[nH]4)cc3)c2)c1`, the IC50 stood at 230 nM. As to `Cc1cccc(Cl)c1Nc1nnc(-c2cccc(C(=O)NC[C@@H]3CC[C@H]4C[C@@H]3C4(C)C)c2)o1`, the 50% inhibitory concentration (IC50) worked out at 270 nM.

`Cc1cc(NN=Cc2ccc(Cl)cc2)c2ccc(F)cc2n1` displayed an IC50 of 760 nM. In turn, `COc1ccc2[nH]cc(C3C[C@H]4CC[C@@H](C3)N4CCC3CCN(C(=O)/C=C/c4ccc(Cl)c(Cl)c4)CC3)c2c1` (stereo partly specified) registered an IC50 of 620 nM. Molecule `CN1CCN(C(=O)CN2CCC3(CCC2=O)NC(=O)c2ccccc2O3)CC1` (stereo unspecified) displayed an IC50 of 210 nM. For the molecule `COc1ccc2nc(C)cc(Nc3ccc(Oc4ccc(Cl)c5ccccc45)c(Cl)c3)c2c1`, the IC50 was determined as 730 nM. In the case of `Cc1cc(NC(=O)[C@H](CC(C)C)Nc2ccc(C#N)c3ccccc23)ccc1F`, the half-maximal inhibitory concentration (IC50) stood at 780 nM. `CC(=O)Nc1cccc(-c2cnc(N)c3cc(-c4ccc5c(c4)OCO5)ccc23)c1` yielded an IC50 of 490 nM.

With `CS(=O)(=O)c1ccccc1CNC(=O)c1cccc(-c2ccc(-c3nc4ccc(C(F)(F)F)cc4[nH]3)cc2)c1`, the 50% inhibitory concentration (IC50) turned out to be 810 nM. The figure for `O=S(=O)(c1ccccc1)n1ccc2cc(Nc3ncnc4cc(C#C[C@H]5CCCN5)sc34)ccc21` is 1070 nM. `Brc1ccc(Nc2nc3ccccc3nc2Nc2ccc(Br)cc2)cc1`: the IC50 was 780 nM.

Consider `COc1ccccc1C1CC(c2ccc(Br)cc2)=NN1C(=O)c1ccccc1` (stereo unspecified), for which the IC50 was 1110 nM. Molecule `CCc1cn2c3c(cc(C(=O)N[C@@H](Cc4ccccc4)[C@H](O)CNC4CCCCC4)cc13)N(C)S(=O)(=O)C2` gave an IC50 of 90 nM. `COc1ccc(-c2cccc(CNC3CCN(CC4Cn5c(=O)ccc6ccc(F)c4c65)CC3)c2)cc1` (stereo unspecified) returned an IC50 of 1090 nM.

`CN(C(=O)C1(c2ccc(Cl)cc2)CC1)C1CCN(CCCCCNC(=O)/C=C/c2ccc(Cl)c(Cl)c2)CC1` had an IC50 of 770 nM. Consider `CC(C)CCNC(=O)C1Cc2c([nH]c3cc(Br)ccc23)C2(CCN(CCc3ccccc3)CC2)N1` (stereo unspecified), for which the IC50 worked out at 910 nM. Molecule `CN1CCN(CCCCCNc2c3ccccc3nc3ccccc23)CC1` yielded a 50% inhibitory concentration (IC50) of 740 nM. `O=C(/C=C/c1ccc(Cl)c(Cl)c1)NCCCCCN1CCC(NC(=O)NC2CCCCCC2)CC1` displayed an IC50 of 460 nM. Under `CC(C)(C)CCN1CCC(CNC(=O)c2cc(-c3cccc(C(F)(F)F)c3)cs2)C1` (stereo unspecified) stands 890 nM. In turn, `COc1ccccc1C1CCN(C2CCC(NC(=O)/C=C/c3ccc(OC(F)(F)F)cc3)CC2)CC1` (stereo unspecified) yielded an IC50 of 1350 nM. Molecule `COc1ccc(-n2ccnc2SCC(=O)Nc2cc(C(F)(F)F)ccc2Cl)c(OC)c1` returned an IC50 of 40 nM. Turning to `CCN(CC)CCN(Cc1ccc(-c2ccc(C(F)(F)F)cc2)cc1)C(=O)Cn1c(CCc2cccc(F)c2F)nc(=O)c2ccc(F)cc21`, the IC50 was 360 nM.

Molecule `N[C@@H](CCNCc1ccc(-c2cccnc2)cc1)Cc1ccc(F)c(F)c1` displayed an IC50 of 800 nM. As for `Fc1c(CNCC2CCN(CC3CCCCC3)CC2)cccc1C(F)(F)F`, the half-maximal inhibitory concentration (IC50) worked out at 900 nM.

As to `CCCN(CCC)S(=O)(=O)c1ccc(C(=O)N2CCC(C(=O)OCC)CC2)cc1`, the IC50 turned out to be 800 nM. The figure for `COc1cc(Nc2ccc3cc(S(=O)(=O)N4CCCCC4C)ccc3n2)cc(OC)c1OC` (stereo unspecified) is 1240 nM; for `CN(C)CCCNCc1ccc(-c2ccc(CNCCOc3ccccc3)cc2)cc1` it is 20 nM; for `COc1ccc2c(NN=Cc3ccccn3)ccnc2c1` it is 370 nM. In turn, `COc1ccc2ncc(F)c(CCN3C[C@H](CNCc4ccc5c(n4)NC(=O)CS5)[C@H](O)C3)c2c1` yielded a 50% inhibitory concentration (IC50) of 780 nM. `COc1ccc2nccc([C@@H](O)CN3CCC(NCc4ccc5cccc(O)c5n4)CC3)c2n1` displayed an IC50 of 910 nM.

The values are drawn from PubChem BioAssay AID2305 (GlaxoSmithKline (GSK), 2010).
